# Laboratory results as given in PMC6979073, “Control of glutamate release by complexes of adenosine and cannabinoid receptors” (BMC Biology, 2020).
# Like-named read-outs stand apart in the source and are kept apart here.
# Experiments:
# [1] = test system: rat striatal synaptosomes; assay: Depolarization-evoked glutamate release from striatal synaptosomes; type: cell-based; conditions: for Evoked glutamate release, expressed as the difference in % of the control value: WIN55,212-2 0.1 μM, n = 6
# A2AR-CB1R heteromer = A2AR-CB1R heteromer (Homo sapiens, UniProt P21554+P29274)
# Sequence of A2AR-CB1R heteromer (P29274 whole entry): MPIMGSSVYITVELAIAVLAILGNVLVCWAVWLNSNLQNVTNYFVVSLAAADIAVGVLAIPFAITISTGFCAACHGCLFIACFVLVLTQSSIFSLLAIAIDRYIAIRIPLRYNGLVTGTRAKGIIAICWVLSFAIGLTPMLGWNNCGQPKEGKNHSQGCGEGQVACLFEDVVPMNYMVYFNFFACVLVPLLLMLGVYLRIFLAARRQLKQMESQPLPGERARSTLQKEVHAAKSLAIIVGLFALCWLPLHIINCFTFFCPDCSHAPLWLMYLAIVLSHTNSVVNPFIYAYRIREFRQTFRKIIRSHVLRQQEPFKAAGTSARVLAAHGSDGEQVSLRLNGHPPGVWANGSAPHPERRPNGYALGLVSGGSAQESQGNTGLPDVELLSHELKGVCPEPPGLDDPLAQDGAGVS
# Sequence of A2AR-CB1R heteromer (P21554 whole entry): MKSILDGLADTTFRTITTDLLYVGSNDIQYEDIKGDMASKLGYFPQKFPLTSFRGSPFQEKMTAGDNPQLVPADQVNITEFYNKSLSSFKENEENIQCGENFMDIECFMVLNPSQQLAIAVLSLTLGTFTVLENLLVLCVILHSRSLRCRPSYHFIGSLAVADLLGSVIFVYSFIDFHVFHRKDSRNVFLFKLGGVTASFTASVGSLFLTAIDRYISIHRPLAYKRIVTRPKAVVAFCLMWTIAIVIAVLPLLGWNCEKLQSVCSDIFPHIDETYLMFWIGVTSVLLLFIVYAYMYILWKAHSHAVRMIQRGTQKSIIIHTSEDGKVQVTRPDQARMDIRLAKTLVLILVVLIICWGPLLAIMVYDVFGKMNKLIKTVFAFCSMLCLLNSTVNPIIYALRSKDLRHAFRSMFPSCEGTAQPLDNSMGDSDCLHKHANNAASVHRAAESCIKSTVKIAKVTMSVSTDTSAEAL
# A2AR-CB1R heterotetramer = A2AR-CB1R heterotetramer (Homo sapiens, UniProt P21554+P29274)
# Sequence of A2AR-CB1R heterotetramer (P29274 whole entry): as the sequence (P29274 whole entry) above
# Sequence of A2AR-CB1R heterotetramer (P21554 whole entry): as the sequence (P21554 whole entry) above
# CB1R [2] = target: CB1R (Homo sapiens, UniProt P21554); conditions: CP55940 200 nM; cells transfected with CB1R
# Sequence of CB1R (Homo sapiens, UniProt P21554) (P21554 whole entry): as above
# CB1R [3] = test system: CB1R; parameters: method as in PMID 16365309, PMID 1331766; conditions: cited from earlier work
# CB1R [4] = test system: CB1R; parameters: method as in PMID 16365309, PMID 1331766; conditions: cited from earlier work; remark: listed apart in the source
# [5] = PTX 10 ng/ml overnight or CTX 100 ng/ml 2 h
compound,measurement,setting,value
CCNC(=O)[C@H]1O[C@@H](n2cnc3c(N)nc(NCCc4ccc(CCC(=O)O)cc4)nc32)[C@H](O)[C@@H]1O [CGS21680],"Effect on the inhibition of glutamate release by 0.01 and 0.03 μM of WIN55,212-2",[1]; CGS21680 0.03 μM or SCH58261 0.1 μM,fully prevented
same,"Effect of co-application on the effect of WIN55,212-2 on glutamate release",[1]; CGS21680 0.03 μM plus SCH58261 0.1 μM,did not significantly modify
Nc1nc2c(cnn2CCc2ccccc2)c2nc(-c3ccco3)nn12 [SCH58261],"Effect of co-application on the effect of WIN55,212-2 on glutamate release",[1],did not significantly modify
same,"Effect on the concentration-response inhibitory curve of WIN55,212-2",[1],shifted to the right
same,"Effect on the inhibition of glutamate release by 0.01 and 0.03 μM of WIN55,212-2",[1],fully prevented
same,Effect on evoked glutamate release,[1]; SCH58261 10 μM,significantly inhibited the evoked glutamate release
CCCCCCC(C)(C)c1ccc([C@@H]2C[C@H](O)CC[C@H]2CCCO)c(O)c1 [CP55940],Effect on the concentration-response curve of NECA (Gs activation),"A2AR-CB1R heteromer; CP55940 10 μM, Gαs-YFP",did not produce a significant shift
same,Concentration-response curve of ligand-induced changes in BRET: G protein coupling,"A2AR-CB1R heteromer; cells co-transfected with either Gαs-, Gαi1- or Gαq-YFP",could only be obtained when the cells were transfected with Gαi-YFP
same,Effect on CGS21680-mediated increase in cAMP,A2AR-CB1R heterotetramer,counteracted CGS21680-mediated increase in cAMP
same,Effect on cAMP formation induced by forskolin (500 nM),CB1R [2],decreased cAMP formation
cholera toxin [CTX],Effect on CGS21680-induced cAMP increase,A2AR-CB1R heterotetramer,blockade
same,Effect on CP55940-induced cAMP decrease,A2AR-CB1R heterotetramer,also blocked
"Cc1c(C(=O)c2cccc3ccccc23)c2cccc3c2n1[C@H](CN1CCOCC1)CO3 [WIN55,212-2]","Evoked glutamate release, expressed as the difference in % of the control value",[1]; synaptosomes incubated 4 h at 4 °C with PTX (2 μg/ml),114.6% ± 6.8
same,"Evoked glutamate release, expressed as the difference in % of the control value",[1]; toxin-naïve synaptosomes,82.9% ± 3.6
same,Further inhibition of evoked glutamate release in the presence of SCH58261 (10 μM),[1]; WIN55212-2 0.3 μM,could not be further inhibited
same,EC50,"[1]; WIN55,212-2 alone, 30 mM KCl, read-out: EC50 of inhibition of evoked glutamate release",5.5 nM
same,Maximal effect on evoked glutamate release,[1]; at 0.03 μM,77.0 ± 3.0 % of DMSO control
same,Potency relative to CP55940 at eliciting Gq-dependent intracellular calcium increase,CB1R [3],more
same,Potency relative to CP55940 at inhibiting forskolin-induced cAMP production,CB1R [4],less potent
pertussis toxin [PTX],"Effect on WIN55,212-2 (0.1 μM) inhibition of glutamate release","[1]; PTX 2 μg/ml, 4 h at 4 °C",fully prevented this inhibition
same,Effect on CGS21680-induced cAMP increase,A2AR-CB1R heterotetramer; [5],also blocked
same,Effect on CP55940-induced cAMP decrease,A2AR-CB1R heterotetramer; [5],blockade
